Like-named read-outs stand apart in the source and are kept apart here.
Experiments:
[1] = target: Full-length (FL)-PRMT5-MEP50 enzyme complex (Homo sapiens (Human), UniProt O14744); assay: PRMT5-MEP50 Enzyme Methylation Assay; type: biochemical; as to Enzyme Methylation Assay IC50 1: top concentration 100000 nM
Experimental: PRMT5-MEP50 Enzyme Methylation Assay
PRMT5/MEP50 biochemical assay is a direct measurement of the methylation activity of the enzyme complex on a short peptide substrate derived from the N-terminus of H4 histone. The methylation experiment is performed with recombinant protein. The assessment of inhibitory effect (IC50) of small molecules is measured by the effectiveness of the compounds to inhibit this reaction.
To each well of a white ProxiPlus 384 well-plate, 100 nL of compound (1% DMSO in final assay volume of 10 μL) was dispensed, followed by the addition of 8 μL of 1× assay buffer (50 mM Bicine pH 8.0, 1 mM DTT, 0.004% Tween20, 0.01% BSA) containing 0.5 nM of Full-length (FL)-PRMT5-MEP50 enzyme complex (recombinant proteins from baculovirus-transfected Sf21 cells: FL-PRMT5; MW=[…] and FL-MEP50; MW=38614). Plates were sealed and placed in a 37° C. humidified chamber for 30 minutes pre-incubation with compounds. Subsequently, each reaction was initiated by the addition of 2 μL 1× assay buffer containing 75 nM biotinylated H4R3(Me1) peptide, and 15 μM S-(5′-Adenosyl)-L-Methionine Chloride (SAM). The final reaction in each well of 10 μL consists of 0.5 nM PRMT5-MEP50, 75 nM biotinylated-peptide, and 15 μM SAM. Methylation reactions were allowed to proceed for 150 minutes in a sealed plate at 37° C. Reactions were immediately quenched by the addition of 1 μL of 10% formic acid. Plates were then frozen and shipped to SAMDI™ Tech Inc. to determine the percent conversion from […]. IC50 values were determined by 7 parameters biphasic fit model plotting the percent product conversion vs. (Log10) compound concentrations.

[2] = target: PRMT5 (Homo sapiens (Human), UniProt O14744); assay: PRMT5 Cell Target Engagement (TE) Assay; type: cell-based; settings: treated 3 days, nuclear SDMA by high content imaging, top concentration 10000 nM
Sequence of PRMT5 (O14744 whole entry): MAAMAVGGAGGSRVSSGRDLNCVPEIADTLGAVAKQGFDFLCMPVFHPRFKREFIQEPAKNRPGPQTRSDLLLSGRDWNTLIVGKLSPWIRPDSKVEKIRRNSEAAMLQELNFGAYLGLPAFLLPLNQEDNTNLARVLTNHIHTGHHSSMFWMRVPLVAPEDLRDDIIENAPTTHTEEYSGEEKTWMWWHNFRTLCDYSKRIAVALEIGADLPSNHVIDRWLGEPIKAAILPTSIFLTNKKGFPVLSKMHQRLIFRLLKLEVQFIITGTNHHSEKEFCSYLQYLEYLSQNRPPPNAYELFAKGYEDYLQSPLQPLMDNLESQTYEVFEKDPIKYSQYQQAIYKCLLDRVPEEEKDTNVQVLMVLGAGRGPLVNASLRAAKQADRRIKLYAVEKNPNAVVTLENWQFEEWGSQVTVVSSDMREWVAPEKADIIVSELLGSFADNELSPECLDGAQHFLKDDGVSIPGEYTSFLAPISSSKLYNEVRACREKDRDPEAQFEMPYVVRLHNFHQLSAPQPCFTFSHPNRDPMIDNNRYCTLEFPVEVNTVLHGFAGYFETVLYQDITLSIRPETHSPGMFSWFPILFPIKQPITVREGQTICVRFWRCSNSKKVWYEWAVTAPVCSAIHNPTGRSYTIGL
Sequence of PRMT5 (Q9BQA1 whole entry partner): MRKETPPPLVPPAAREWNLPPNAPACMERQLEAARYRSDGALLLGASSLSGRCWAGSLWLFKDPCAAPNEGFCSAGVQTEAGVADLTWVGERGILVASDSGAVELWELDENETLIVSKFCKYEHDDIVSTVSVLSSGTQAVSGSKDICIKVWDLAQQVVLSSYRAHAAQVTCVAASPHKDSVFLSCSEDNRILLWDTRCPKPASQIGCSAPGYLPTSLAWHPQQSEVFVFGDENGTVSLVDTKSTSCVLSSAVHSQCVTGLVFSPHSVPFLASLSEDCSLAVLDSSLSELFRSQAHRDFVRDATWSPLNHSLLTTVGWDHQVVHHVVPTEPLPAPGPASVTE
Text: PRMT5 Cell Target Engagement (TE) Assay
The PRMT5 TE assay is a biomarker assay for identifying compounds that inhibit symmetric dimethylation of arginine (SDMA) of PRMT5 substrates. This assay detects symmetrically dimethylated nuclear proteins using high content imaging technology. Detection of the expression of symmetrically dimethylated nucleo proteins is through a mixture of primary rabbit monoclonal antibodies to SDMA (CST 13222), which in turn recognized by an Alexafluor 488 dye-conjugated anti-rabbit IgG secondary antibody. The IN Cell Analyzer 2200 measures nuclear Alexafluor 488 fluorescent dye intensity that is directly related to the level of expression of symmetrically dimethylated nuclear proteins at the single cell level. Nuclear AF488 dye intensities are compared to the mean value for DMSO treated cells […] to report percent of inhibition for each compound-treated well.
Each well of a BD falcon collagen coated black/clear bottom 384-well plate was seeded with 4000 MCF-7 cells and allowed to attach for 5 hours. Media from cell plate was removed at 0.5 mm above the bottom of the plate and replaced with 30 μL of fresh media containing 1.2× compounds in 0.1% DMSO. Cells were treated for 3 days in 37° C. CO2 incubator. On day 3, cells were fixed with Cytofix, permeablized with 0.4% Triton-X-100/Cytofix, and washed with D-PBS without Ca/Mg. Cells were blocked with Licor Odessey blocking reagent for one hour at room temperature, followed by incubation with anti-SDMA (1:1000) antibody at 4° C. overnight. 1 antibody was removed, followed by three washings with DPBS without Ca/Mg and 0.05% Tween20. Hoechst (5 μg/ml), Cell Mask deep stain (1:2000) and Alexa488-conjugated goat anti-rabbit IgG (2 μg/mL) was added for 1 hour at room temperature. A final washing step (three washes) was performed before sealing plate for imaging on In Cell Analyzer 2200. Images from analyzer were uploaded to Columbus (at WP) for image analysis. IC50 values were determined by 4 parameters robust fit of percent fluorescence units vs. (Log10) compound concentrations.

[3] = read-out: Enzyme Methylation Assay IC50_1
[4] = read-out: Enzyme Methylation Assay IC50_2
[5] = MCF-7 cells, read-out: TE Assay EC50

Sequence of Full-length (FL)-PRMT5-MEP50 enzyme complex (O14744 whole entry): as the sequence (O14744 whole entry) above
Sequence of Full-length (FL)-PRMT5-MEP50 enzyme complex (Q9BQA1 whole entry partner): as the sequence (Q9BQA1 whole entry partner) above

SMILES	IC50 [1, 3]	IC50 [1, 4]	EC50 [2, 5]	EC50 ([2]; TE Assay EC50, MCF-7 cells)
CC[C@H]1CN(C[C@@H](O)[C@@H]2Cc3ccccc3CN2)C(=O)c2ccc(Br)cc21 (single isomer, unassigned) [Example 4]	45.8 nM	25800 nM	≥ 10000 nM	
CC[C@H]1CN(C[C@@H](O)[C@@H]2Cc3ccccc3CN2)C(=O)c2ccc(C(=O)N3C4CCC3COC4)cc21 (single isomer, unassigned) [Example 13]	0.36 nM	270 nM		30 nM
CC[C@H]1CN(C[C@@H](O)[C@@H]2Cc3ccccc3CN2)C(=O)c2ccc(C(=O)N3C4CCC3COC4)cc21 (single isomer, unassigned) [Example 14]	0.24 nM	31.7 nM		2.52 nM
CC1(C)CN(C[C@@H](O)[C@@H]2Cc3ccccc3CN2)C(=O)c2ccc(-c3ncnn3C3CC3)cc21 [Example 9, 6-(1-cyclopropyl-1H-1,2,4-triazol-5-yl)-2-{(2R)-2-hydroxy-2-[(3S)-1,2,3,4-tetrahydroisoquinolin-3-yl]ethyl}-4,4-dimethyl-3,4-dihydroisoquinolin-1(2H)-one]	0.47 nM	422 nM	29.5 nM	
CC1(C)CN(C[C@@H](O)[C@@H]2Cc3ccccc3CN2)C(=O)c2ccc(C(=O)N3C4CCC3COC4)cc21 [Example 19, 6-(3-oxa-8-azabicyclo[3.2.1]octane-8-carbonyl)-2-((R)-2-hydroxy-2-((S)-1,2,3,4-tetrahydroisoquinolin-3-yl)ethyl)-4,4-dimethyl-3,4-dihydroisoquinolin-1(2H)-one]	0.53 nM	138 nM		9.5 nM
CC1(C)CN(C[C@@H](O)[C@@H]2Cc3ccccc3CN2)C(=O)c2ccc(C(=O)N3C4COC5C4OCC53)cc21 [Example 27, 6-(hexahydro-3,6-epiminofuro[3,2-b]furan-7-carbonyl)-2-((R)-2-hydroxy-2-((S)-1,2,3,4-tetrahydroisoquinolin-3-yl)ethyl)-4,4-dimethyl-3,4-dihydroisoquinolin-1(2H)-one]	0.35 nM	115 nM	18.6 nM	
O=C1c2ccc(-c3ncnn3C3CC3)cc2C2(CCC2)CN1C[C@@H](O)[C@@H]1Cc2ccccc2CN1 [Example 11, 6′-(1-cyclopropyl-1H-1,2,4-triazol-5-yl)-2′-{(2R)-2-hydroxy-2-[(3S)-1,2,3,4-tetrahydroisoquinolin-3-yl]ethyl}-2′,3′-dihydro-1′H-spiro[cyclobutane-1,4′-isoquinolin]-1′-one]	0.29 nM	127 nM	17 nM	
CC[C@H]1CN(C[C@@H](O)[C@@H]2Cc3ccccc3CN2)C(=O)c2ccc(Br)cc21 (single isomer, unassigned) [Example 3]	411 nM	21300 nM	≥ 10000 nM	
CC[C@H]1CN(C[C@@H](O)[C@@H]2Cc3ccccc3CN2)C(=O)c2ccc(Br)cc21 (single isomer, unassigned) [Example 1]	5.38 nM	3740 nM	2860 nM	
CC[C@H]1CN(C[C@@H](O)[C@@H]2Cc3ccccc3CN2)C(=O)c2ccc(Br)cc21 (single isomer, unassigned) [Example 2]	0.21 nM	172 nM	213 nM	
O=C1c2ccc(C(=O)N3C4CCC3COC4)cc2CCN1CC(O)[C@@H]1Cc2ccccc2CN1 (stereo partly drawn) [Example 30, 2-{2-hydroxy-2-[(3S)-1,2,3,4-tetrahydroisoquinolin-3-yl]ethyl}-6-(3-oxa-8-azabicyclo[3.2.1]oct-8-ylcarbonyl)-3,4-dihydroisoquinolin-1(2H)-one]	16.6 nM	6280 nM	869 nM	
CC[C@H]1CN(C[C@@H](O)[C@@H]2Cc3ccccc3CN2)C(=O)c2ccc(-c3ncnn3C)cc21 (single isomer, unassigned) [Example 7]	0.31 nM	313 nM	143 nM	
CC1(C)CN(C[C@@H](O)[C@@H]2Cc3ccccc3CN2)C(=O)c2ccc(N3C(=O)C4CCC3CC4)cc21 [Example 29, 2-{(2R)-2-hydroxy-2-[(3S)-1,2,3,4-tetrahydroisoquinolin-3-yl]ethyl}-4,4-dimethyl-6-(3-oxo-2-azabicyclo[2.2.2]octan-2-yl)-3,4-dihydroisoquinolin-1(2H)-one]	0.84 nM	359 nM	74.4 nM	
CC1(C)CN(C[C@@H](O)[C@@H]2Cc3ccccc3CN2)C(=O)c2ccc(C(=O)N3[C@@H]4CC[C@H]3C[C@@H](O)C4)cc21 [Example 21, 2-((R)-2-hydroxy-2-((S)-1,2,3,4-tetrahydroisoquinolin-3-yl)ethyl)-6-((1R,3R,5S)-3-hydroxy-8-azabicyclo[3.2.1]octane-8-carbonyl)-4,4-dimethyl-3,4-dihydroisoquinolin-1(2H)-one]	0.52 nM	88.1 nM		5.52 nM
CO[C@H]1C[C@H]2CC[C@@H](C1)N2C(=O)c1ccc2c(c1)C(C)(C)CN(C[C@@H](O)[C@@H]1Cc3ccccc3CN1)C2=O [Example 23, 2-((R)-2-hydroxy-2-((S)-1,2,3,4-tetrahydroisoquinolin-3-yl)ethyl)-6-((1R,3R,5S)-3-methoxy-8-azabicyclo[3.2.1]octane-8-carbonyl)-4,4-dimethyl-3,4-dihydroisoquinolin-1(2H)-one]	0.5 nM	97.7 nM		2.14 nM
CO[C@H]1C[C@H]2CC[C@@H](C1)N2C(=O)c1ccc2c(c1)C(C)(C)CN(C[C@H](O)[C@@H]1Cc3ccccc3CN1)C2=O [Example 24, 2-((S)-2-hydroxy-2-((S)-1,2,3,4-tetrahydroisoquinolin-3-yl)ethyl)-6-((1R,3S,5S)-3-methoxy-8-azabicyclo[3.2.1]octane-8-carbonyl)-4,4-dimethyl-3,4-dihydroisoquinolin-1(2H)-one]	11.3 nM	7500 nM	2640 nM	
CC1(C)CN(C[C@@H](O)[C@@H]2Cc3ccccc3CN2)C(=O)c2ccc(Br)cc21 [Example 17, 6-bromo-2-((R)-2-hydroxy-2-((S)-1,2,3,4-tetrahydroisoquinolin-3-yl)ethyl)-4,4-dimethyl-3,4-dihydroisoquinolin-1(2H)-one]	0.61 nM	368 nM	200 nM	
CC[C@H]1CN(C[C@@H](O)[C@@H]2Cc3ccccc3CN2)C(=O)c2ccc(C(=O)N3C4CCC3COC4)cc21 (single isomer, unassigned) [Example 16]	17.6 nM	8840 nM	829 nM	
CC[C@H]1CN(C[C@@H](O)[C@@H]2Cc3ccccc3CN2)C(=O)c2ccc(-c3ncnn3C)cc21 (single isomer, unassigned) [Example 8]	49 nM	28500 nM	7680 nM	
CC[C@H]1CN(C[C@@H](O)[C@@H]2Cc3ccccc3CN2)C(=O)c2ccc(-c3ncnn3C)cc21 (single isomer, unassigned) [Example 5]	465 nM	≥ 100000 nM	≥ 10000 nM	
CC1(C)CN(C[C@H](O)[C@@H]2Cc3ccccc3CN2)C(=O)c2ccc(Br)cc21 [Example 18, 6-bromo-2-((S)-2-hydroxy-2-((S)-1,2,3,4-tetrahydroisoquinolin-3-yl)ethyl)-4,4-dimethyl-3,4-dihydroisoquinolin-1(2H)-one]	225 nM	≥ 100000 nM	≥ 10000 nM	
CCC1CN(C[C@@H](O)[C@@H]2Cc3ccccc3CN2)C(=O)c2ccc(-c3ncnn3C3CC3)cc21 (single isomer, unassigned) [Example 10]	0.4 nM	374 nM	22.6 nM	

— patent publication US11098059B2, “PRMT5 inhibitors” (Merck Sharp & Dohme Corp., priority 2017, dated 2021)
